This is an account of results in patent publication US9981940B2, “Aryl sulfide derivatives and aryl sulfoxide derivatives as acaricides and insecticides” (BAYER CROPSCIENCE AKTIENGESELLSCHAFT, priority 2013, dated 2018).

In data set [1] the test system is Tetranychus urticae. The data set can be described thus: Tetranychus urticae spray test, OP-resistant (TETRUR). It counts as in vivo. The following applies: after 6 days; for pest or weed control at 500 g/ha: Tetranychus urticae, 144 h, read-out: efficacy. A digest of the protocol:
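Bean leaf discs infested with all stages of an OP-resistant Tetranychus urticae strain sprayed with compound in acetone/DMF with alkylaryl polyglycol ether emulsifier, diluted in water. Efficacy in % scored after 6 days; 100% means all mites killed.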

Data set [2] in a line: log P by HPLC (OECD Guideline 117), method [b] neutral range. It counts as physicochemical. The settings on record: HPLC; for logP[b]: method [b] neutral range; for chromatographic logP: reversed-phase C18 HPLC column, neutral range, pH 7.8. As for the experimental part: (§1) The log P values were determined analogously to OECD Guideline 117 (EC Directive 92/69/EEC) by HPLC (high-performance liquid chromatography) using reversed-phase columns (C 18), by the following methods:
[b] The LC-MS determination in the neutral range is effected at pH 7.8 with 0.001 molar aqueous ammonium hydrogencarbonate solution and acetonitrile as eluents; linear gradient from 10% acetonitrile to 95% acetonitrile.

Data set [3] in a line: log P by HPLC (OECD Guideline 117), method [a] acidic range. Type of data set: physicochemical. The settings on record: for logP[a]: HPLC, method [a] acidic range; for chromatographic logP: reversed-phase C18 HPLC column, acidic range. As for the experimental part:
as §1
[a] The LC-MS determination in the acidic range is effected at pH 2.7 with 0.1% aqueous formic acid and acetonitrile (contains 0.1% formic acid) as eluents; linear gradient from 10% acetonitrile to 95% acetonitrile.

Setting [4] is: pH 2.7, HPLC method [a], read-out: logP[a].
The mark [5] stands for this setting: pH 2.7, HPLC, pH 2.7, read-out: log P[a].

For the compound `CNn1c(N(C)C)nn(-c2cc([S+]([O-])CC(F)(F)F)c(C)cc2F)c1=O` (centres unmarked) [Example 217], in data set [1] (application rate of 500 g/ha), the efficacy worked out at 90%. For the same compound, the “logP[b]” value in data set [2] is listed as 1.98. For the same compound, the “logP[a]” value in data set [3] is on record as 2.02.
For `CNc1nn(-c2cc(SCC(F)(F)F)c(C)cc2F)c(=O)n1N` [Example 218], in that order: 90%, 2.04 and 2.06.
For `Cc1cc(F)c(-n2nc(N(C)C)n(N)c2=O)cc1SCC(F)(F)F` [Example 220], in that order: 90%, 2.48 and 2.51.
The matching figures for `Cc1cc(F)c(-n2nc(N(C)C)n(N)c2=O)cc1[S+]([O-])CC(F)(F)F` (centres unmarked) [Example 221]: 100%, 1.60 and 1.63.
In turn, `CCN(CC)c1nn(-c2cc(SCC(F)(F)F)c(C)cc2F)c(=O)n1N` [Example 222] registered an efficacy in data set [1] (application rate of 500 g/ha) of 90%. In data set [2], the “logP[b]” value was determined as 3.17. The “logP[a]” value in data set [3] turned out to be 3.22.
`Cc1cc(F)c(-n2nc(NC(C)C)n(N)c2=O)cc1SCC(F)(F)F` [Example 224] displayed an efficacy in data set [1] (application rate of 500 g/ha) of 90%. In data set [2], the “logP[b]” value stood at 2.71. Moreover, in data set [3], the “logP[a]” value was 2.74.
On to `COn1c(C)nn(-c2cc([S+]([O-])CC(F)(F)F)c(C)cc2F)c1=O` (centres unmarked) [Example 226], for which the efficacy in data set [1] (application rate of 500 g/ha) is listed as 100%. Moreover, in data set [2], the “logP[b]” value is 1.74. Further, the “logP[a]” value in data set [3] amounted to 1.76.
Turning to `Cc1cc(F)c(-n2nc([S+]([O-])CC(F)F)n(C3CC3)c2=O)cc1[S+]([O-])CC(F)(F)F` (centres unmarked) [Example 229], the efficacy in data set [1] (application rate of 500 g/ha) is reported as 90%. The “logP[b]” value in data set [2] was determined as 2.07. The “logP[a]” value in data set [3] was 2.10.
The matching figures for `Cc1cc(F)c(-n2nc([S+](C)[O-])n(C3CC3)c2=O)cc1SCC(F)(F)F` (centres unmarked) [Example 230]: 100%, 2.40 and 2.45.
For `Cc1cc(F)c(-n2nc([S+](C)[O-])n(C)c2=O)cc1SCC(F)(F)F` (centres unmarked) [Example 232], in that order: 90%, 2.21 and 2.25.
Consider `Cc1cc(F)c(-n2nc([S+](C)[O-])n(C)c2=O)cc1[S+]([O-])CC(F)(F)F` (centres unmarked) [Example 233], for which the efficacy in data set [1] (application rate of 500 g/ha) was 100%. Besides, the “logP[b]” value in data set [2] worked out at 1.44. The “logP[a]” value in data set [3] worked out at 1.47.
The matching figures for `CC[S+]([O-])c1nn(-c2cc(SCC(F)(F)F)c(C)cc2F)c(=O)n1C1CC1` (centres unmarked) [Example 234]: 100%, 2.65 and 2.68.
For `CC[S+]([O-])c1nn(-c2cc([S+]([O-])CC(F)(F)F)c(C)cc2F)c(=O)n1C1CC1` (centres unmarked) [Example 235], in data set [1] (application rate of 500 g/ha), the efficacy is 100%. Further, the “logP[b]” value in data set [2] was found to be 1.80. In data set [3], the “logP[a]” value was determined as 1.85.
For the compound `CCC[S+]([O-])c1nn(-c2cc(SCC(F)(F)F)c(C)cc2F)c(=O)n1C1CC1` (centres unmarked) [Example 236], in data set [1] (application rate of 500 g/ha), the efficacy is listed as 90%. The “logP[b]” value in data set [2] came to 2.98. The “logP[a]” value in data set [3] is 3.05.
For `CCC[S+]([O-])c1nn(-c2cc([S+]([O-])CC(F)(F)F)c(C)cc2F)c(=O)n1C1CC1` (centres unmarked) [Example 237], in that order: 100%, 2.08 and 2.14.
For `Cc1cc(F)c(-n2nc([S+]([O-])C(C)C)n(C3CC3)c2=O)cc1SCC(F)(F)F` (centres unmarked) [Example 238], in that order: 100%, 2.92 and 2.99.
The matching figures for `Cc1cc(F)c(-n2nc([S+]([O-])C(C)C)n(C3CC3)c2=O)cc1[S+]([O-])CC(F)(F)F` (centres unmarked) [Example 239]: 100%, 2.03 and 2.08.
In the case of `CCn1c([S+](C)[O-])nn(-c2cc(SCC(F)(F)F)c(C)cc2F)c1=O` (centres unmarked) [Example 240], the efficacy in data set [1] (application rate of 500 g/ha) was 100%. Besides, the “logP[b]” value in data set [2] is on record as 2.46. Besides, the “logP[a]” value in data set [3] is on record as 2.53.
On to `CC[S+]([O-])c1nn(-c2cc(SCC(F)(F)F)c(C)cc2F)c(=O)n1C` (centres unmarked) [Example 243, 5-(Ethylsulphinyl)-2-{2-fluoro-4-methyl-5-[(2,2,2-trifluoroethyl)sulphanyl]phenyl}-4-methyl-2,4-dihydro-3H-1,2,4-triazol-3-one], for which the pest or weed control at 500 g/ha in data set [1] (application rate of 500 g/ha) amounted to 100%. For the same compound, the chromatographic logP in data set [2] is 2.51; in data set [3] (setting [4]), 2.55; in data set [3] (setting [5]), 2.55.
For the compound `CC[S+]([O-])c1nn(-c2cc([S+]([O-])CC(F)(F)F)c(C)cc2F)c(=O)n1C` (centres unmarked) [Example 244, 5-(Ethylsulphinyl)-2-{2-fluoro-4-methyl-5-[(2,2,2-trifluoroethyl)sulphinyl]phenyl}-4-methyl-2,4-dihydro-3H-1,2,4-triazol-3-one], in data set [1] (application rate of 500 g/ha), the pest or weed control at 500 g/ha was found to be 100%. For the same compound, the chromatographic logP in data set [2] amounted to 1.65; in data set [3] (setting [4]) it was 1.69; in data set [3] (setting [5]), 1.69.
`CCC[S+]([O-])c1nn(-c2cc([S+]([O-])CC(F)(F)F)c(C)cc2F)c(=O)n1C` (centres unmarked) [Example 246] had an efficacy in data set [1] (application rate of 500 g/ha) of 100%. The “logP[b]” value in data set [2] came out at 1.95. Moreover, the “logP[a]” value in data set [3] is 1.99.
In the case of `Cc1cc(F)c(-n2nc([S+]([O-])CC3CC3)n(C)c2=O)cc1SCC(F)(F)F` (centres unmarked) [Example 247], in data set [1] (application rate of 500 g/ha), the efficacy worked out at 100%. Also, the “logP[b]” value in data set [2] is given as 2.85. The “logP[a]” value in data set [3] worked out at 2.94.
In the case of `Cc1cc(F)c(-n2nc([S+]([O-])CC3CC3)n(C)c2=O)cc1[S+]([O-])CC(F)(F)F` (centres unmarked) [Example 248], the efficacy in data set [1] (application rate of 500 g/ha) is given as 100%. In data set [2], the “logP[b]” value is listed as 1.98. For the same compound, in data set [3], the “logP[a]” value is 2.03.
Consider `C=CCn1c([S+]([O-])C(C)C)nn(-c2cc([S+]([O-])CC(F)(F)F)c(C)cc2F)c1=O` (centres unmarked) [Example 249], for which, in data set [1] (application rate of 500 g/ha), the efficacy is reported as 90%. Also, the “logP[b]” value in data set [2] is 2.26. Moreover, the “logP[a]” value in data set [3] was found to be 2.32.
For `Cc1cc(F)c(-n2nc([S+]([O-])Cc3ccccc3)n(C)c2=O)cc1[S+]([O-])CC(F)(F)F` (centres unmarked) [Example 250], the efficacy in data set [1] (application rate of 500 g/ha) came to 100%. Further, the “logP[b]” value in data set [2] came to 2.29. In data set [3], the “logP[a]” value was 2.34.
For `CCC[S+]([O-])c1nn(-c2cc([S+]([O-])CC(F)(F)F)c(C)cc2F)c(=O)n1CC` (centres unmarked) [Example 251], in that order: 100%, 2.18 and 2.22.
For `CCn1c([S+]([O-])CC)nn(-c2cc([S+]([O-])CC(F)(F)F)c(C)cc2F)c1=O` (centres unmarked) [Example 252], in that order: 100%, 1.87 and 1.90.
`Cc1cc(F)c(-n2nc(SCC(F)(F)F)n(C3CC3)c2=O)cc1SCC(F)(F)F` [Example 254] registered an efficacy in data set [1] (application rate of 500 g/ha) of 90%. Further, the “logP[b]” value in data set [2] is listed as 3.84. Besides, in data set [3], the “logP[a]” value is recorded as 3.89.
For `Cc1cc(F)c(-n2nc(SCC(F)(F)F)n(C3CC3)c2=O)cc1[S+]([O-])CC(F)(F)F` (centres unmarked) [Example 255], in that order: 100%, 2.89 and 2.93.
Consider `Cc1cc(F)c(-n2nc(SCC(F)F)n(C3CC3)c2=O)cc1[S+]([O-])CC(F)(F)F` (centres unmarked) [Example 256], for which, in data set [1] (application rate of 500 g/ha), the efficacy was 90%. In addition, in data set [2], the “logP[b]” value was determined as 2.69. In addition, the “logP[a]” value in data set [3] is 2.73.
The matching figures for `Cc1cc(F)c(-n2nc(SCC(F)F)n(C3CC3)c2=O)cc1SCC(F)(F)F` [Example 258]: 90%, 3.75 and 3.71.
For `CSc1nn(-c2cc(SCC(F)(F)F)c(C)cc2F)c(=O)n1C1CC1` [Example 259], in that order: 100%, 3.60 and 3.56.
The matching figures for `CSc1nn(-c2cc([S+]([O-])CC(F)(F)F)c(C)cc2F)c(=O)n1C` (centres unmarked) [Example 260]: 100%, 2.03 and 2.07.
In data set [1] (application rate of 500 g/ha), `CCSc1nn(-c2cc(SCC(F)(F)F)c(C)cc2F)c(=O)n1C1CC1` [Example 261] gave an efficacy of 100%. Also, the “logP[b]” value in data set [2] stood at 4.03. Besides, in data set [3], the “logP[a]” value worked out at 3.99.
For `CCSc1nn(-c2cc([S+]([O-])CC(F)(F)F)c(C)cc2F)c(=O)n1C1CC1` (centres unmarked) [Example 262], in that order: 100%, 2.76 and 2.81.
Consider `Cc1cc(F)c(-n2nc(SC(F)(F)F)n(C3CC3)c2=O)cc1SCC(F)(F)F` [Example 263], for which, in data set [1] (application rate of 100 g/ha), the efficacy is 100%. Further, the “logP[b]” value in data set [2] was 4.01. Also, the “logP[a]” value in data set [3] amounted to 4.08.
`Cc1cc(F)c(-n2nc(SC(F)(F)F)n(C3CC3)c2=O)cc1[S+]([O-])CC(F)(F)F` (centres unmarked) [Example 264] displayed an efficacy in data set [1] (application rate of 500 g/ha) of 100%. Moreover, in data set [2], the “logP[b]” value is listed as 2.98. For the same compound, the “logP[a]” value in data set [3] is given as 3.05.
